Laboratory results taken from patent US12508262B2, “Methods of using ALK2 inhibitors” (Keros Therapeutics, Inc., priority 2020, dated 2025).

Tests used:
healthy volunteers [1] = experiment: Phase 1 single- and multiple-ascending dose study, pharmacodynamic endpoints (serum iron, transferrin saturation, ferritin, hepcidin, reticulocyte hemoglobin, cholesterol); assay type: in vivo, human; conditions: for transferrin saturation, mean percent change from baseline / serum iron, mean change from baseline: Day 4, multiple ascending doses; for transferrin saturation, mean percent change from baseline: placebo 0.3%; for serum iron, mean change from baseline: placebo 1.4
Text: (§1) The primary objectives of this study were to a) evaluate safety and tolerability of escalating doses of the compound of Formula I-11 administered as single and multiple oral doses in healthy male volunteers and healthy postmenopausal female volunteers and b) evaluate the PK parameters following escalating doses of the compound of Formula I-11 administered as single and multiple oral doses. The secondary objective of this study was to evaluate the pharmacodynamic (PD) parameters following escalating doses of the compound of Formula I-11 administered as single and multiple oral doses. This study was conducted in two parts.
(§2) Participants in Part 1 received a single oral dose of the compound of Formula I-11 or placebo on Day 1 and serial PK samples were collected. Baseline assessments were performed on day −1 prior to dosing. Samples were collected for determination of pharmacodynamic parameters at pre-dose daily and up to 24 hours post dose (day 2) after a single oral dose of the compound of Formula I-11. Participants remained at the study site for observation for 24 hours post-dose through the PK sample collection on Day 2. Participants returned to the site for the 48, 72, and 120-hour post-dose sample collection on Days 3, 4, and 6. Safety was evaluated by a Safety Review Committee prior to escalation to the next dose level cohort.
(§3) Participants in Part 2, Cohorts 1 through 3, received a daily oral dose of the compound of Formula I-11 (50, 100, or 200 mg liquid formulation respectively) or placebo for 7 days. A daily oral dose of the compound of Formula I-11 or placebo in participants in Part 2, Cohort 4 (350 mg liquid formulation) was planned for 14 days but was discontinued early in all subjects, either by the Investigator because of AEs, or by the Sponsor. A decision was made by the Sponsor to discontinue dosing of the entire cohort based on the frequency of AEs and laboratory abnormalities after Day 9. In Cohort 4, participants on the compound of Formula I-11 received daily oral dosing of 350 mg for up to 7 days; one placebo participant received daily oral dosing for 9 days. Samples were collected for determination of pharmacodynamic parameters at pre-dose daily and to 24 hours post dose (day 8) while on drug. Daily trough PK samples were collected for the determination of steady-state from Day 2 to Day 12 or 13. Participants returned to the site on Day 30 for an end-of-study visit. Safety was evaluated by a Safety Review Committee prior to escalation to the next dose level cohort.
Part 2, MAD Cohort 5 (C5) participants received either the compound of Formula I-11, 100 mg (n=8) or placebo (n=2) on Days 1, 2, 3, 4, 5, 6, 7. The last dose was administered on the morning of Day 7. Serial PK sample collection for the determination of steady-state concentrations of the compound of Formula I-11 was done at pre-dose and up to 24 hours post-dose, beginning on Day 1, 4 and 7. Participants returned for follow-up visits on […], and Day 30 for an end-of-study visit.
Pharmacodynamic endpoints: Protocol-specified endpoints were assessed at baseline and regularly throughout the study period. These assessments included measurements of serum iron, transferrin saturation (calculated as serum iron/total iron-binding capacity), serum ferritin, serum hepcidin, and reticulocyte hemoglobin content, serum cholesterol, LDL, and HDL cholesterol. Measurements of all pharmacodynamic end points were made using standard clinical laboratory tests. Hepcidin analysis was performed using an ELISA kit from Intrinsic LifeSciences (Intrinsic Hepcidin IDx™ ELISA kit).

[2] = Phase 1 single- and multiple-ascending dose study, PK parameters; assay type: in vivo, human
Text: as §1
Participants in Part 1 received a single oral dose of the compound of Formula I-11 or placebo on Day 1 and serial PK samples were collected. Baseline assessments were performed on day −1 prior to dosing. Samples were collected for determination of pharmacodynamic parameters at pre-dose daily and up to 24 hours post dose (day 2) after a single oral dose of the compound of Formula I-11. […] Safety was evaluated by a Safety Review Committee prior to escalation to the next dose level cohort.
Participants in Part 2, Cohorts 1 through 3, received a daily oral dose of the compound of Formula I-11 (50, 100, or 200 mg liquid formulation respectively) or placebo for 7 days. […] Safety was evaluated by a Safety Review Committee prior to escalation to the next dose level cohort. […]

healthy volunteers [3] = experiment: Phase 1 single- and multiple-ascending dose study, safety and tolerability; assay type: in vivo, human
Text: A total of 131 healthy, males aged 18 to 60 years and post-menopausal females aged 45 to 60 years, participated in this study.
as §1
Part 1 included 80 participants (10 cohorts of 8 participants each). Male and female participants who met the eligibility criteria were randomly assigned, in a ratio of 3:1 to receive the compound of Formula I-11 or matching placebo, N=6 and 2 per dose cohort, respectively. Participant enrollment included […] males and 12.5% females (postmenopausal). The IMP formulation used in Cohorts 1 through 6 was an oral capsule (doses of 1, 3, 10, 30, 100, or 300 mg capsule formulation). An oral liquid formulation was evaluated in Cohorts 7 through 10 (doses of 30, 100, 300 or 450 mg liquid formulation).
as §2
Part 2, Cohorts 1 through 4, included 41 participants (4 cohorts of 10 participants each and 1 additional placebo participant in Cohort 1). Male and female participants who met the eligibility criteria were randomly assigned at a ratio of 4:1 to receive either the compound of Formula I-11 oral liquid formulation or matching placebo, N=8 and 2 per dose cohort respectively. Forty (97.6%) males and 1 (2.4%) female (placebo) participant were enrolled.
as §3
Part 2, MAD Cohort 5 (C5) participants received either the compound of Formula I-11, 100 mg (n=8) or placebo (n=2) on Days 1, 2, 3, 4, 5, 6, 7. The last dose was administered on the morning of Day 7. […]

mouse model of IRIDA = experiment: TMPRSS6 siRNA mouse model of IRIDA; assay type: in vivo, C57BL/6 mice
Protocol: To establish a murine model of IRIDA, eight-week-old male C57BL/6 mice were dosed intravenously with lipid encapsulated siRNA targeted against either Luciferase (control) or TMPRSS6 (0.75 mg/kg). Following confirmation of disease at day 8 post initial siRNA administration, once-daily oral dosing with the compound of Formula I-42 (5 mg/kg) or vehicle commenced. A second siRNA administration was given on day 10. Studies were terminated 18 days post initial siRNA administration. Hematological parameters, serum iron, and serum hepcidin were measured at the end of the study.

[4] = system: mouse model of chronic kidney disease (CKD); experiment: Adenine-induced mouse model of chronic kidney disease; assay type: in vivo, C57Bl/6 mice
Protocol: To induce chronic kidney disease (CKD), 6-week-old C57Bl/6 mice were dosed daily via PO administration with 50 mg/kg of adenine or vehicle. After six weeks of adenine administration, a representative group of mice were taken down and tested to confirm anemia. Concomitantly, the remainder of the CKD mice began dosing with either vehicle or the compound of Formula I-42 5 mg/kg PO daily. Mice were dosed with vehicle or the compound of Formula I-42 while still receiving daily adenine for 10 days. The study was terminated at 52 days and hematology (Heska, Element HT-5), serum hepcidin (Intrinsic Biosciences, Hepcidin Murine Compete), and serum iron (Bioassay Systems, QuantiChrom Kit) levels were assessed.

[5] = fourth dose level (350 mg daily)
[6] = second dose level (100 mg daily)
[7] = third dose level (200 mg daily)
[8] = 5 mg/kg once-daily oral from day 8, study termination (day 18)
[9] = 5 mg/kg once-daily oral from day 8, study termination (day 18), with TMPRSS6 siRNA
[10] = 5 mg/kg PO daily for 10 days, Day 52
[11] = 5 mg/kg PO daily, after 10 days

## COc1cc2c(-c3cnn4cc(N5CCC(N6CCN(C)CC6)CC5)cnc34)ccnc2cc1F [Formula I-11]
Healthy volunteers [1]; Cohort 5 (100 mg), after administration of the first dose, as early as
  time to decrease in hepcidin: 4 h
Healthy volunteers [1]; first dose level (50 mg daily)
  transferrin saturation, mean percent change from baseline: 1.6%
  serum iron, mean change from baseline: 1.48 μM/L
Healthy volunteers [1]; [5]
  transferrin saturation, mean percent change from baseline: 30.1%
  serum iron, mean change from baseline: 17.71 μM/L
Healthy volunteers [1]; [6]
  transferrin saturation, mean percent change from baseline: 1.5%
  serum iron, mean change from baseline: 0.59 μM/L
Healthy volunteers [1]; [7]
  transferrin saturation, mean percent change from baseline: 7.5%
  serum iron, mean change from baseline: 5.11 μM/L
Healthy volunteers [1]; MAD cohort participants
  serum ferritin: decreases in serum ferritin
Healthy volunteers [1]; MAD cohorts
  day of peak increase in reticulocyte hemoglobin content: 7 days
Healthy volunteers [1]; MAD cohorts 1-4, day post-dosing
  start of increase in reticulocyte hemoglobin content: 4 days
Healthy volunteers [1]; SAD and MAD cohorts
  effect on serum ferritin, single vs multiple doses: observed only after multiple doses
Healthy volunteers [1]; SAD cohorts
  time to decrease in total cholesterol: ≤ 24 h
Healthy volunteers [1]; multiple dose regimen, day of treatment
  day of peak serum iron concentrations: Day 3 or 4
Healthy volunteers [1]; once-daily doses of 50 mg
  transferrin saturation, observed PD response: not substantially different from placebo
Healthy volunteers [1]; once-daily oral over 7 days, effect similar at 50 mg, 100 mg and 200 mg
  serum hepcidin vs placebo: robust decreases in baseline hepcidin
Healthy volunteers [1]; repeated administration
  hemoglobin content of reticulocytes: increases over baseline in the hemoglobin content of reticulocytes
Healthy volunteers [1]; single (SAD) or once-daily (MAD) oral administration
  serum iron: rapid, robust, and sustained dose-related increases in serum iron
Healthy volunteers [1]; single dose of 30 mg, liquid formulation
  transferrin saturation, observed PD response: not substantially different from placebo
Healthy volunteers [1]; single dose, Day 2, post-dose
  time of peak effect on serum iron: 24 h
Healthy volunteers [1]; single or repeated doses of 100 mg or above
  transferrin saturation: sustained, dose-related increases in transferrin saturation
Healthy volunteers [1]; single or repeated oral administration (Cohorts 1-4)
  total cholesterol: decreases in total cholesterol
[2]; both sexes, human, in vivo, oral, healthy participants, approximately
  half-life: 10 to 15 h
[2]; multiple doses from 50-200 mg
  Mean AUC and Cmax, dose proportionality: greater than dose-proportional increases
Healthy volunteers [3]; after 7 daily oral doses, healthy participants
  well tolerated dose level, repeated dose: up to 200 mg
Healthy volunteers [3]; human, in vivo
  participants who discontinued the study due to AEs: 25%
Healthy volunteers [3]; in vivo
  AEs reported in ≥2 subjects and higher than placebo: headache, nausea, vomiting, diarrhea, gastroenteritis, chills, pyrexia, myalgia, decreased appetite, lymphopenia, neutropenia, abdominal discomfort, abdominal pain (upper), dizziness, fatigue, rhinorrhea, tonsillitis, and liver enzyme increases
  AEs that led to study drug discontinuation in three or more participants: lymphopenia and chills
  onset of lymphopenia (% change in lymphocytes): 5 days
  reversibility of lymphopenia / lymphocyte changes: reversible
  serious adverse events: no serious adverse events
  severity of the majority of AEs: mild or moderate in severity
  subjects who discontinued the study due to AEs: none
  subjects with increases in ALT >2×ULN: 3 subjects
Healthy volunteers [3]; in vivo, po
  development of lymphopenia (lymphocyte counts <1.0×10^9 cells/L): ≥ 6 day
Healthy volunteers [3]; single oral dose, healthy participants
  well tolerated dose level, single dose: up to 450 mg

## COc1cc2c(-c3cnn4cc(N5CC(N6CCN(C)CC6)C5)cnc34)ccnc2cc1F [Formula I-42]
Mouse model of IRIDA; 5 mg/kg once-daily oral
  disease phenotype: rescued the disease phenotype
Mouse model of IRIDA; [8]
  serum hepcidin vs vehicle-treated mice receiving TMPRSS6 siRNA: decreased serum hepcidin
  serum iron vs vehicle-treated mice receiving TMPRSS6 siRNA: increased serum iron
Mouse model of IRIDA; [9]
  hematocrit vs vehicle-treated mice: increase
  hemoglobin levels vs vehicle-treated mice: increase
  red blood cell counts vs vehicle-treated mice: increase
[4]; [10]
  hematocrit, higher than vehicle-treated mice receiving adenine: 10.2%
  hemoglobin, higher than vehicle-treated mice receiving adenine: 10.7%
  red blood cell counts, higher than vehicle-treated mice receiving adenine: 7.1%
  reticulocyte hemoglobin content, higher than vehicle-treated mice receiving adenine: 10.4%
[4]; [11]
  increase in serum iron values vs vehicle treated mice receiving adenine: 108.2%
  reduction in serum hepcidin values vs vehicle treated mice receiving adenine: 85.4%
